Measured values from patent US5173494A, “Specific inhibition of angiotensin-II binding to angiotensin-II receptor subtype-2” (E. I. du Pont de Nemours and Company, priority 1991, dated 1992).

What was measured:
[1] = test system: renin-induced disruption of passive avoidance retention; test: Renin-disrupted passive avoidance retention; assay type: in vivo, male Sprague-Dawley rats; settings: rats; for prevention of renin-induced amnesia: co-administered with renin, IVT
Method: Experimentally naive male Sprague-Dawley rats […] (Charles River Breeding Laboratories, Kingston, N.Y.), weighing between 175 to 200 gm were used. The animals were housed four per cage (45.0 L×20.0 H×26.0 W cm) with free access to food and water. They were maintained on a 12 h light/dark cycle (lights on 0600 h) and at a room temperature of 22±1° C. with relative humidity of 50±10%.
The experimental sessions were conducted in a two-compartment passive avoidance box. One compartment, made of clear plastic with a perforated clear plastic floor, measured 21(L)×24.5(H)×17(W) cm and was illuminated with a 60 watt incandescent light bulb placed 36 cm above the floor. The other compartment, made of black plastic, measured 30.5(L)×20.3(H)×[…] with a floor made of 4 mm stainless steel rods spaced 1.2 cm apart. A grid floor shocker (Coulbourn Instruments) was connected to the steel rods and provided scrambled footshock. The two compartments were separated by a solenoid-operated slide door (Lafayette Instrument Co., Lafayette, Ind.). An electronic counter (Coulbourn Instruments), triggered by the opening or closing of the slide door, recorded acquisition and retention latencies (latencies were defined as the time it took an animal to enter the dark compartment).
Passive avoidance training began by placing the rat into the clear compartment of the two-compartment passive avoidance box. Following a 10 sec delay, the slide door to the dark compartment was raised. Once the rat moved completely into the dark compartment (all four paws on the shock grid floor) the slide door was lowered, and after a 10 sec delay, a 1.0 mA shock was applied to the grid floor for three sec. A second three sec shock was delivered after an additional 10 sec delay. The rats were immediately removed from the dark compartment and returned to their home cage. A retention test was given 24 h later. It proceeded in the same manner as the training session except that no shock was applied to the grid floor when the rats were provided access to the dark compartment for a maximum of 300 sec.
All drugs were administered IVT 60 minutes prior to acquisition training in a volume of 5 μl. Doses are expressed as the free base weight of each compound.

[2] = test system: mouse habituation (light to dark compartment latency); settings: cited from earlier work
[3] = test system: scopolamine-induced impairment of eight arm radial maze performance; settings: 3 mg/kg IP; cited from earlier work
uphill avoidance = settings: mice, acute, 30 mg/kg PO; cited from earlier work
[4] = test system: ACh in the striatum and hypothalamus; settings: acute or repeated administration; cited from earlier work
[5] = test system: scopolamine-induced PA amnesia; settings: three times per day at 1, 3 and 10 mg/kg PO; cited from earlier work
[6] = test system: memory of previously learned tasks; settings: in vivo; cited from earlier work
[7] = test system: light/dark habituation performance; settings: subchronic treatment; cited from earlier work
[8] = test system: renin-induced avoidance disruption; settings: cited from earlier work
[9] = test system: renin-induced amnesia in a PA task; test: PA task after IVT renin (own laboratory); assay type: in vivo
[10] = test system: retention of a passive avoidance (PA) response; settings: rats, dorsal neostriatum injection; cited from earlier work
[11] = test system: potassium-stimulated release of ACh in entorhinal cortex; settings: in vitro, entorhinal cortex from rat brain; cited from earlier work
[12] = test system: AII in cerebrospinal fluid (CSF); settings: renin IVT; increased from 40; cited from earlier work

Molecule: CCCc1nc(C(F)(F)F)c(C(=O)O)n1Cc1ccc(-c2ccccc2-c2nn[nH]n2)cc1 [Compound C, 2-n-propyl-1-[(2'-(lH-tetrazol-5-yl)biphenyl-4-yl)methyl]-4-trifluoromethylimidazole-5-carboxylic acid]
- prevention of renin-induced amnesia [1]: protected against amnesia

Molecule: CCCc1nc(C(F)(F)F)c(CO)n1Cc1ccc(-c2ccccc2-c2nnn[nH]2)cc1 [Compound D, 2-n-propyl-5-hydroxymethyl-1-[(2'-(1H-tetrazol-5-yl)biphenyl-4-yl)methyl]-4-trifluoromethylimidazole]
- prevention of renin-induced amnesia [1]: protected against amnesia

Molecule: Cc1cc(Cn2cnc3c2CC(C(=O)O)N(C(=O)C(c2ccccc2)c2ccccc2)C3)ccc1N (stereo not shown) [EXP655, 1-(4-amino-3-methylphenyl)methyl-5-diphenylacetyl-4,5,6,7-tetrahydro-1H-imidazo[4,5-c]pyridine-6-carboxylic acid]
- initial latency to move from light to dark compartment ([2]; 10.0 ng kg^-1 i.p. b.d., days 2 and 3, vs vehicle): decrease in the initial latency to move from the light to dark compartment
- scopolamine-induced impairment in mice treated with EXP655 ([2]; EXP655 10.0 ng kg^-1 i.p., scopolamine 0.25 mg kg^-1 i.p., day 6): not detected
- prevention of renin-induced amnesia [1]: less effective in preventing the amnesia

Molecule: CCOC(=O)C(CCc1ccccc1)NC(C)C(=O)N1CC2(CC3CCC2CC3)CC1C(=O)O (stereo not shown) [Hoe 288]
- effect of muscarinic receptor blockade on performance [3]: partially antagonized the effects of muscarinic receptor blockade on performance
- performance during retention testing, uphill avoidance (uphill avoidance): improved performance during retention testing
- ACh in the striatum and hypothalamus [4]: significant decrease in ACh
- effect on scopolamine-induced PA amnesia [5]: partially reversed the amnesia

Molecule: NCCCC[C@H](OP(=O)(O)CCCCc1ccccc1)C(=O)N1CCC[C@H]1C(=O)O [SQ 29852]
- effect on anticholinergic effect on performance [6]: ameliorate, at least in part, an anticholinergic effect on performance
- effect on memory of previously learned tasks [6]: protective effects on memory of previously learned tasks

Molecule: C[C@H](CS)C(=O)N1CCC[C@H]1C(=O)O [captopril]
- rate of acquisition of light/dark habituation performance [7]: increased the rate of acquisition
- prevention of renin-induced avoidance disruption ([8]; IVT, prior to the renin injection): prevented the renin-induced avoidance disruption
- prevention of renin-induced amnesia in a PA task ([9]; IVT administration): prevented

Molecule: CN1[C@@H]2C[C@@H](OC(=O)[C@H](CO)c3ccccc3)C[C@H]1[C@@H]1O[C@@H]12 [scopolamine]
- performance following scopolamine in vehicle-treated mice (initial latency) ([2]; scopolamine 0.25 mg kg^-1 i.p., day 6): increase in the initial latency

Molecule: NC(=O)[C@@H]1CCCN1C(=O)[C@H](Cc1cnc[nH]1)NC(=O)[C@@H]1CCC(=O)N1 [thyrotropin releasing hormone]
- effect on retention of a PA response [10]: had no effect

Molecule: AII: Angiotensin-II (AII), a circulating hormone, now thought to act as a neuropeptide in the central nervous system (DRVYIHPF; Angiotensin-2; UniProt P01019 25-32, looked up)
- basal levels of ACh release [11]: without effects on basal levels
- potassium-stimulated release of ACh [11]: reduced potassium-stimulated release of ACh
- effect on retention of a PA response [10]: disruption in retention of a PA response

Molecule: [1-sarcosine, 8-threonine]angiotensin-II
- antagonism of AII effect on ACh release [11]: antagonized

Molecule: lysine-8-vasopressin
- effect on retention of a PA response [10]: had no effect

B1: renin: Renin (Sigma Chemicals), a stimulator of endogenous AII biosynthesis (protein, UniProt P00797 67-406, looked up)
Renin: LTLGNTTSSVILTNYMDTQYYGEIGIGTPPQTFKVVFDTGSSNVWVPSSKCSRLYTACVYHKLFDASDSSSYKHNGTELTLRYSTGTVSGFLSQDIITVGGITVTQMFGEVTEMPALPFMLAEFDGVVGMGFIEQAIGRVTPIFDNIISQGVLKEDVFSFYYNRDSENSQSLGGQIVLGGSDPQHYEGNFHYINLIKTGVWQIQMKGVSVGSSTLLCEDGCLALVDTGASYISGSTSSIEKLMEALGAKKRLFDYVVKCNEGPTLPDISFHLGGKEYTLTSADYVFQESYSSKKLCTLAIHAMDIPPPTGPTWALGATFIRKFYTEFDRRNNRIGFALAR
- AII in cerebrospinal fluid after renin [12]: about 5000 fmol per mL
- effect on avoidance learning ([8]; renin into lateral ventricle (IVT)): disruption of avoidance learning
- memory deficit produced by renin ([1]; renin injected IVT): produces memory deficit in rats
- amnesia in a PA task ([9]; renin administered IVT): produces a dose-related amnesia
